{
  "source": "patent US20050054620A1",
  "about": "“Paricalcitol as a chemotherapeutic agent” (priority 2003, published 2005)",
  "test_system": "mononuclear bone marrow cells from wild type (WT) mice",
  "test": "Colony-forming assay in methylcellulose, wild type mice",
  "format": "cell-based",
  "details": "10^−8 M",
  "text": "In FIG. 6D, colony formation by mononuclear bone marrow cells from VDR knock-out (VDR-KO) and wild type (WT) mice is shown. Mononuclear cells were obtained from femoral bone marrow plugs and grown in methylcellulose culture media with either paricalcitol (10^−8M) or diluant. Colonies were counted on day 10 of culture. The number of total colonies (average) were 87 (control) and 66 (paricalcitol 10^−8M) in wild type mice, and 110 (control) and 122 (paricalcitol 10^−8M) in VDR-KO mice. The percentage of macrophage, granulocyte and mixed granulocyte/macrophage colonies are shown. Triplicate wells for each mouse and a total of three KO and three WT mice were studied. G, granulocyte colonies; G/M mixed granulocyte/macrophage colonies; M, macrophage colonies.\nThe VDR KO Mouse and Colony-Forming Assay was performed as follows. VDR KO mice were generated and genotypes were determined by Southern Blot Analysis as described previously (O'Kelly et al., supra, 2002). For experiments using VDR KO mice, their wild-type (WT) littermates were used as controls. Mice were killed by cervical neck dislocation. Bone marrow was flushed out of isolated femurs with (a-MEM; Gibco BRL, Grand Island, N.Y., USA) including 10% FCS using a 26-gauge needle. Isolated spleens were injected with DMEM (Gibco BRL) plus 10% FCS and crushed with forceps to release cells. Mononuclear cells from bone marrow or spleen were separated by Ficoll-Hypaque density centrifugation (Amersham Pharmacia, Uppsala, Sweden). Resuspended mononuclear bone marrow cells (2×10^4 cells/ml) and growth factors were added 1:10 to methylcellulose medium M3234 (StemCell Technologies Inc., Vancouver, British Columbia, Canada) to yield a final concentration of 1% methylcellulose, 30% FCS, 1% BSA, 10^-4M mercaptoethanol, and 2 mM L-glutamine as described previously (19). Cells were plated in six-well plates in a volume of 1 ml and incubated at 37° C. in a humidified atmosphere containing 5% CO2. Colonies were counted after 2 weeks. Colony type was established by morphology; and to ensure accurate determination, representative colonies were plucked from the plates, centrifuged onto slides, stained with Wright-Giemsa stain and examined by light microscopy.",
  "data": [
    {"smiles": "C[C@H](/C=C/[C@H](C)C(C)(C)O)[C@H]1CC[C@H]2/C(=C/C=C3C[C@@H](O)C[C@H](O)C3)CCC[C@]12C", "note": "[paricalcitol, 19-nor-1,25, (OH)2D3]", "values": [
      {"measurement": "percentage of granulocyte colonies", "setting": "control 23±4%", "value": "6±3", "unit": "%"},
      {"measurement": "percentage of macrophage colonies", "setting": "control 32±4%", "value": "69±2", "unit": "%"},
      {"measurement": "percentage of mixed colonies", "setting": "control 43±7%", "value": "25±5", "unit": "%"},
      {"measurement": "number of total colonies (average)", "setting": "control 87", "value": 66}
    ]}
  ]
}
